Results from US20210228500A1, “CELLULAR RETINOID BINDING PROTEIN ANTAGONISTS AND USES THEREOF” (CASE WESTERN RESRVE UNIVERSITY, priority 2018, published 2021).

What was measured:
[1] = target: T1, CRBP4 (Homo sapiens, UniProt Q96R05); conditions: read-out: affinity for atROL; cited from earlier work
T1 construct: thrombin cut site (residual residues after digestion) (C); 6x histidine tag (C, cleaved yes); made in house; host or cells: E. coli BL21 (DE3) (as for CRBP2)
T1 sequence (Q96R05 1-134): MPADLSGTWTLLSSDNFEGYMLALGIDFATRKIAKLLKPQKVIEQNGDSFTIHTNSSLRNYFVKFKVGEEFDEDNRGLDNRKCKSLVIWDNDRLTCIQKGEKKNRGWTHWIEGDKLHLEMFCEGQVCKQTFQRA

[2] = target: T2, CRBP1 (Homo sapiens, UniProt P09455); conditions: read-out: affinity for atROL; cited from earlier work
T2 construct: made in house
T2 sequence (P09455 1-135): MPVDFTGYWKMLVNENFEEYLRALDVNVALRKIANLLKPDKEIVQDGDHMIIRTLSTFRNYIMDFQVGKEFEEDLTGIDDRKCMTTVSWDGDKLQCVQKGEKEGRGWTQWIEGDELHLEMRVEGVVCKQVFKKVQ

[3] = target: T2, CRBP1; test: Fluorescence binding assay: atROL displacement from holo-CRBP1 (FRET); conditions: for binding to / interaction with CRBP1: 0-10 μM range
Method: Human apo-CRBP1 was expressed and purified as described by Silvaroli et al. (J Biol Chem. 2016, 15; 291(16)) without any further modification to the established protocol.
To prepare holo-CRBP1, 3 mg of purified apoprotein was incubated for 15 min on ice with 2 molar excess of atROL (Toronto Research Chemicals) in 10 mM Tris-HCl, pH 8.0, 5% glycerol (v/v). The retinoid was delivered in acetonitrile (<1%, v/v). To remove excess of atROL, the protein solution was diluted 10× with 10 mM Tris-HCl, pH 8.0, centrifuged (36 000 g, 20 min, 4° C.) and loaded onto a 5 mL HiTrap Q HP column. Holo-CRBP1 was eluted from the column in conditions described in CRBP1 purification method. The efficiency of formation of holo-CRBP1 was examined by recording UV/vis spectrum of the repurified protein.
The apparent affinity of nonretinoid ligands was evaluated by monitoring changes in the fluorescence of holo-CRBP1. In the atROL bound form, the protein excited at 285 nm emitted fluorescence at 350 and 480 nm due to FRET between the protein scaffold and the retinoid moiety (FIG. 2A). Replacement of atROL in the binding site by tested ligands leads to disruption of FRET and consequently an increase in the fluorescence intensity at 350 nm with concomitant diminishing signal at 480 nm. All fluorescence measurements were performed using a PerkinElmer Life Sciences LS55 spectrofluorometer. The titrations were performed at 25° C. in 67 mM phosphate-buffered saline buffer, pH 7.4, containing 5% glycerol (v/v) by adding an increasing amount of an examined compound delivered in acetonitrile. […] All fluorescence spectra were corrected for the inner filter effect. The Ki values were calculated by fitting intensities of the protein fluorescence at the maximum emission (350 nm) or the intensity of retinoid fluorescence at 480 nm to the saturation single ligand-binding model. The data fitting and calculations of the Ki values were performed using SigmaPlot 11 software package (Systat Software).

[4] = fluorescence atROL-replacing assay

## CC1=C(/C=C/C(C)=C/C=C/C(C)=C/CO)C(C)(C)CCC1 [atROL, all-trans-retinol]
[1]
  Kd: 200 nM
[2]
  Kd: < 1 nM
[3]; reverse experiment: CRBP1 loaded with abn-CBD titrated with atROL, read-out: Ki value for replacing abn-CBD by vitamin A
  Ki: ~34 nM

## C=C(C)[C@@H]1CCC(C)=CC1c1c(O)cc(C)cc1O (stereo partly drawn) [CBDO, 5-methyl-2-[(6R)-3-methyl-6-prop-1-en-2-ylcyclohex-2-en-1-yl]benzene-1,3-diol]
[3]; fluorescence atROL-replacing assay, relative to abn-CBDO
  further increase of the Ki value: 6.3 fold

## C=C(C)[C@H]1CC=C(C)CC1 [limonene, reference compound]
[3]; [4]
  binding to / interaction with CRBP1: did not observe limonene interacting

## C=C(C)[C@@H]1CCC(C)=C[C@H]1c1c(OC)cc(C)cc1OC [0-1918, 1,3-dimethoxy-5-methyl-2-[(1R,6R)-3-methyl-6-prop-1-en-2-ylcyclohex-2-en-1-yl]benzene]
[3]; [4]
  binding to / interaction with CRBP1: abolished the meaningful binding

## C=C(C)[C@@H]1CCC(C)=C[C@H]1c1c(C)cc(O)cc1O [abn-CBDO, 5-methyl-4-[(1R,6R)-3-methyl-6-prop-1-en-2-ylcyclohex-2-en-1-yl]benzene-1,3-diol]
[3]; fluorescence atROL-replacing assay, relative to abn-CBD
  apparent affinity lowered compared with abn-CBD: 4.3 times
